From patent US11034650B2, “Compounds useful for treating a Mannheimia haemolytica or Histophilus somni infection” (Intervet Inc., priority 2016, dated 2021)
≈ marks a conversion by molar mass, not a printed value.

test system: Mannheimia haemolytica MH 6357 (M7/2, reference strain, cattle infection strain); test: MIC, broth-microdilution (CLSI VET01-A4), strain MH 6357; format: cell-based; conditions: Mannheimia haemolytica strain MH 6357, broth-microdilution; unit assumed
How it was run: (§1)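 Visual endpoint: the first dilution of a doubling series lacking turbidity gives the MIC; CLSI VET01-S3 interpretive rules applied.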

Row | SMILES | MIC MH 6357 [mg/L]
1 | O=C(N[C@@H](CO)C(=O)NO)c1ccc(C#Cc2ccc(CN3CCc4ccccc4C3)cc2)cc1 [Compound 83] | 25 (≈ 53.2 µM)
2 | CCN(CC)Cc1ccc(C#Cc2ccc(C(=O)N[C@H](C(=O)NO)C(C)C)cc2)cc1 [Compound 97] | 12.5 (≈ 29.7 µM)
3 | CC(C)[C@H](NC(=O)c1ccc(C#Cc2ccc(CN3CCN(c4ccccn4)CC3)cc2)cc1)C(=O)NO [Compound 101] | 3.1 (≈ 6.06 µM)
4 | CC(C)[C@H](NC(=O)c1ccc(C#Cc2ccc(CNCc3ccccc3)cc2)cc1)C(=O)NO [Compound 104] | 0.4 (≈ 0.878 µM)
5 | CC(C)[C@H](NC(=O)c1ccc(C#Cc2cccc(CN3CCOCC3)c2)cc1)C(=O)NO [Compound 32] | 6.3 (≈ 14.5 µM)
6 | C=CCNCc1cccc(C#Cc2ccc(C(=O)N[C@H](C(=O)NO)C(C)C)cc2)c1 [Compound 26] | 12.5 (≈ 30.8 µM)
7 | O=C(N[C@@H](CO)C(=O)NO)c1ccc(C#Cc2ccc(CNCc3ccncc3)cc2)cc1 [Compound 90] | 3.1 (≈ 6.97 µM)

test system: Mannheimia haemolytica MH 6374 (ATCC 33396, reference strain); test: MIC, broth-microdilution (CLSI VET01-A4), strain MH 6374; format: cell-based; conditions: Mannheimia haemolytica strain MH 6374, broth-microdilution; unit assumed
How it was run: as §1

Row | SMILES | MIC MH 6374 [mg/L]
8 | O=C(N[C@@H](CO)C(=O)NO)c1ccc(C#Cc2ccc(CN3CCc4ccccc4C3)cc2)cc1 [Compound 83] | 0.8 (≈ 1.7 µM)
9 | CCN(CC)Cc1ccc(C#Cc2ccc(C(=O)N[C@H](C(=O)NO)C(C)C)cc2)cc1 [Compound 97] | 12.5 (≈ 29.7 µM)
10 | CC(C)[C@H](NC(=O)c1ccc(C#Cc2ccc(CN3CCN(c4ccccn4)CC3)cc2)cc1)C(=O)NO [Compound 101] | 3.1 (≈ 6.06 µM)
11 | CC(C)[C@H](NC(=O)c1ccc(C#Cc2ccc(CNCc3ccccc3)cc2)cc1)C(=O)NO [Compound 104] | 0.4 (≈ 0.878 µM)
12 | CC(C)[C@H](NC(=O)c1ccc(C#Cc2cccc(CN3CCOCC3)c2)cc1)C(=O)NO [Compound 32] | 6.3 (≈ 14.5 µM)
13 | C=CCNCc1cccc(C#Cc2ccc(C(=O)N[C@H](C(=O)NO)C(C)C)cc2)c1 [Compound 26] | 6.3 (≈ 15.5 µM)
14 | O=C(N[C@@H](CO)C(=O)NO)c1ccc(C#Cc2ccc(CNCc3ccncc3)cc2)cc1 [Compound 90] | 1.6 (≈ 3.6 µM)

test system: Mannheimia haemolytica MH 10720 (154, BRD field isolate); test: MIC, broth-microdilution (CLSI VET01-A4), strain MH 10720; format: cell-based; conditions: Mannheimia haemolytica strain MH 10720, broth-microdilution; unit assumed
How it was run: as §1

Row | SMILES | MIC MH 10720 [mg/L]
15 | O=C(N[C@@H](CO)C(=O)NO)c1ccc(C#Cc2ccc(CN3CCc4ccccc4C3)cc2)cc1 [Compound 83] | 0.4 (≈ 0.852 µM)
16 | CCN(CC)Cc1ccc(C#Cc2ccc(C(=O)N[C@H](C(=O)NO)C(C)C)cc2)cc1 [Compound 97] | 3.1 (≈ 7.35 µM)
17 | CC(C)[C@H](NC(=O)c1ccc(C#Cc2ccc(CN3CCN(c4ccccn4)CC3)cc2)cc1)C(=O)NO [Compound 101] | 0.8 (≈ 1.56 µM)
18 | CC(C)[C@H](NC(=O)c1ccc(C#Cc2ccc(CNCc3ccccc3)cc2)cc1)C(=O)NO [Compound 104] | ≤ 0.1
19 | CC(C)[C@H](NC(=O)c1ccc(C#Cc2cccc(CN3CCOCC3)c2)cc1)C(=O)NO [Compound 32] | 3.1 (≈ 7.12 µM)
20 | C=CCNCc1cccc(C#Cc2ccc(C(=O)N[C@H](C(=O)NO)C(C)C)cc2)c1 [Compound 26] | 3.1 (≈ 7.64 µM)
21 | O=C(N[C@@H](CO)C(=O)NO)c1ccc(C#Cc2ccc(CNCc3ccncc3)cc2)cc1 [Compound 90] | 1.6 (≈ 3.6 µM)

test system: Mannheimia haemolytica MH 12587 (1071, BRD field isolate, macrolide-resistance: erm+, E+); test: MIC, broth-microdilution (CLSI VET01-A4), strain MH 12587; format: cell-based; conditions: Mannheimia haemolytica strain MH 12587, broth-microdilution; unit assumed
How it was run: as §1

Row | SMILES | MIC MH 12587 [mg/L]
22 | O=C(N[C@@H](CO)C(=O)NO)c1ccc(C#Cc2ccc(CN3CCc4ccccc4C3)cc2)cc1 [Compound 83] | 1.6 (≈ 3.41 µM)
23 | CCN(CC)Cc1ccc(C#Cc2ccc(C(=O)N[C@H](C(=O)NO)C(C)C)cc2)cc1 [Compound 97] | 12.5 (≈ 29.7 µM)
24 | CC(C)[C@H](NC(=O)c1ccc(C#Cc2ccc(CN3CCN(c4ccccn4)CC3)cc2)cc1)C(=O)NO [Compound 101] | 12.5 (≈ 24.4 µM)
25 | CC(C)[C@H](NC(=O)c1ccc(C#Cc2ccc(CNCc3ccccc3)cc2)cc1)C(=O)NO [Compound 104] | 1.6 (≈ 3.51 µM)
26 | CC(C)[C@H](NC(=O)c1ccc(C#Cc2cccc(CN3CCOCC3)c2)cc1)C(=O)NO [Compound 32] | 12.5 (≈ 28.7 µM)
27 | C=CCNCc1cccc(C#Cc2ccc(C(=O)N[C@H](C(=O)NO)C(C)C)cc2)c1 [Compound 26] | 25 (≈ 61.7 µM)
28 | O=C(N[C@@H](CO)C(=O)NO)c1ccc(C#Cc2ccc(CNCc3ccncc3)cc2)cc1 [Compound 90] | 3.1 (≈ 6.97 µM)

test system: Mannheimia haemolytica MH 13065 (XB0446-6003.9, BRD field isolate); test: MIC, broth-microdilution (CLSI VET01-A4), strain MH 13065; format: cell-based; conditions: Mannheimia haemolytica strain MH 13065, broth-microdilution; unit assumed
How it was run: as §1

Row | SMILES | MIC MH 13065 [mg/L]
29 | O=C(N[C@@H](CO)C(=O)NO)c1ccc(C#Cc2ccc(CN3CCc4ccccc4C3)cc2)cc1 [Compound 83] | 0.8 (≈ 1.7 µM)
30 | CCN(CC)Cc1ccc(C#Cc2ccc(C(=O)N[C@H](C(=O)NO)C(C)C)cc2)cc1 [Compound 97] | 12.5 (≈ 29.7 µM)
31 | CC(C)[C@H](NC(=O)c1ccc(C#Cc2ccc(CN3CCN(c4ccccn4)CC3)cc2)cc1)C(=O)NO [Compound 101] | 3.1 (≈ 6.06 µM)
32 | CC(C)[C@H](NC(=O)c1ccc(C#Cc2ccc(CNCc3ccccc3)cc2)cc1)C(=O)NO [Compound 104] | 0.4 (≈ 0.878 µM)
33 | CC(C)[C@H](NC(=O)c1ccc(C#Cc2cccc(CN3CCOCC3)c2)cc1)C(=O)NO [Compound 32] | 6.3 (≈ 14.5 µM)
34 | C=CCNCc1cccc(C#Cc2ccc(C(=O)N[C@H](C(=O)NO)C(C)C)cc2)c1 [Compound 26] | 12.5 (≈ 30.8 µM)
35 | O=C(N[C@@H](CO)C(=O)NO)c1ccc(C#Cc2ccc(CNCc3ccncc3)cc2)cc1 [Compound 90] | 1.6 (≈ 3.6 µM)

test system: Mannheimia haemolytica MH 13093 (XB0472-6014.1, BRD field isolate); test: MIC, broth-microdilution (CLSI VET01-A4), strain MH 13093; format: cell-based; conditions: Mannheimia haemolytica strain MH 13093, broth-microdilution; unit assumed
How it was run: as §1

Row | SMILES | MIC MH 13093 [mg/L]
36 | O=C(N[C@@H](CO)C(=O)NO)c1ccc(C#Cc2ccc(CN3CCc4ccccc4C3)cc2)cc1 [Compound 83] | 1.6 (≈ 3.41 µM)
37 | CCN(CC)Cc1ccc(C#Cc2ccc(C(=O)N[C@H](C(=O)NO)C(C)C)cc2)cc1 [Compound 97] | 12.5 (≈ 29.7 µM)
38 | CC(C)[C@H](NC(=O)c1ccc(C#Cc2ccc(CN3CCN(c4ccccn4)CC3)cc2)cc1)C(=O)NO [Compound 101] | 3.1 (≈ 6.06 µM)
39 | CC(C)[C@H](NC(=O)c1ccc(C#Cc2ccc(CNCc3ccccc3)cc2)cc1)C(=O)NO [Compound 104] | 0.8 (≈ 1.76 µM)
40 | CC(C)[C@H](NC(=O)c1ccc(C#Cc2cccc(CN3CCOCC3)c2)cc1)C(=O)NO [Compound 32] | 6.3 (≈ 14.5 µM)
41 | C=CCNCc1cccc(C#Cc2ccc(C(=O)N[C@H](C(=O)NO)C(C)C)cc2)c1 [Compound 26] | 12.5 (≈ 30.8 µM)
42 | O=C(N[C@@H](CO)C(=O)NO)c1ccc(C#Cc2ccc(CNCc3ccncc3)cc2)cc1 [Compound 90] | 1.6 (≈ 3.6 µM)

test system: Pasteurella multocida PM 6267 (P 2225 (L386), reference strain, mouse infection strain); test: MIC, broth-microdilution (CLSI VET01-A4), strain PM 6267; format: cell-based; conditions: Pasteurella multocida strain PM 6267, broth-microdilution; unit assumed
How it was run: as §1

Row | SMILES | MIC PM 6267 [mg/L]
43 | O=C(N[C@@H](CO)C(=O)NO)c1ccc(C#Cc2ccc(CN3CCc4ccccc4C3)cc2)cc1 [Compound 83] | ≤ 0.1
44 | CCN(CC)Cc1ccc(C#Cc2ccc(C(=O)N[C@H](C(=O)NO)C(C)C)cc2)cc1 [Compound 97] | 0.2 (≈ 0.474 µM)
45 | CC(C)[C@H](NC(=O)c1ccc(C#Cc2ccc(CN3CCN(c4ccccn4)CC3)cc2)cc1)C(=O)NO [Compound 101] | 0.4 (≈ 0.782 µM)
46 | CC(C)[C@H](NC(=O)c1ccc(C#Cc2ccc(CNCc3ccccc3)cc2)cc1)C(=O)NO [Compound 104] | ≤ 0.1
47 | CC(C)[C@H](NC(=O)c1ccc(C#Cc2cccc(CN3CCOCC3)c2)cc1)C(=O)NO [Compound 32] | 1.6 (≈ 3.67 µM)
48 | C=CCNCc1cccc(C#Cc2ccc(C(=O)N[C@H](C(=O)NO)C(C)C)cc2)c1 [Compound 26] | 3.1 (≈ 7.64 µM)
49 | O=C(N[C@@H](CO)C(=O)NO)c1ccc(C#Cc2ccc(CNCc3ccncc3)cc2)cc1 [Compound 90] | ≤ 0.1

test system: Pasteurella multocida PM 10775 (080130003051, BRD field isolate); test: MIC, broth-microdilution (CLSI VET01-A4), strain PM 10775; format: cell-based; conditions: Pasteurella multocida strain PM 10775, broth-microdilution; unit assumed
How it was run: as §1

Row | SMILES | MIC PM 10775 [mg/L]
50 | O=C(N[C@@H](CO)C(=O)NO)c1ccc(C#Cc2ccc(CN3CCc4ccccc4C3)cc2)cc1 [Compound 83] | ≤ 0.1
51 | CCN(CC)Cc1ccc(C#Cc2ccc(C(=O)N[C@H](C(=O)NO)C(C)C)cc2)cc1 [Compound 97] | ≤ 0.1
52 | CC(C)[C@H](NC(=O)c1ccc(C#Cc2ccc(CN3CCN(c4ccccn4)CC3)cc2)cc1)C(=O)NO [Compound 101] | ≤ 0.1
53 | CC(C)[C@H](NC(=O)c1ccc(C#Cc2ccc(CNCc3ccccc3)cc2)cc1)C(=O)NO [Compound 104] | ≤ 0.1
54 | CC(C)[C@H](NC(=O)c1ccc(C#Cc2cccc(CN3CCOCC3)c2)cc1)C(=O)NO [Compound 32] | 0.4 (≈ 0.918 µM)
55 | C=CCNCc1cccc(C#Cc2ccc(C(=O)N[C@H](C(=O)NO)C(C)C)cc2)c1 [Compound 26] | 0.8 (≈ 1.97 µM)
56 | O=C(N[C@@H](CO)C(=O)NO)c1ccc(C#Cc2ccc(CNCc3ccncc3)cc2)cc1 [Compound 90] | ≤ 0.1

test system: Pasteurella multocida PM 12080 (IV102277-0093, BRD field isolate); test: MIC, broth-microdilution (CLSI VET01-A4), strain PM 12080; format: cell-based; conditions: Pasteurella multocida strain PM 12080, broth-microdilution; unit assumed
How it was run: as §1

Row | SMILES | MIC PM 12080 [mg/L]
57 | O=C(N[C@@H](CO)C(=O)NO)c1ccc(C#Cc2ccc(CN3CCc4ccccc4C3)cc2)cc1 [Compound 83] | 0.8 (≈ 1.7 µM)
58 | CCN(CC)Cc1ccc(C#Cc2ccc(C(=O)N[C@H](C(=O)NO)C(C)C)cc2)cc1 [Compound 97] | 0.8 (≈ 1.9 µM)
59 | CC(C)[C@H](NC(=O)c1ccc(C#Cc2ccc(CN3CCN(c4ccccn4)CC3)cc2)cc1)C(=O)NO [Compound 101] | 0.8 (≈ 1.56 µM)
60 | CC(C)[C@H](NC(=O)c1ccc(C#Cc2ccc(CNCc3ccccc3)cc2)cc1)C(=O)NO [Compound 104] | 0.4 (≈ 0.878 µM)
61 | CC(C)[C@H](NC(=O)c1ccc(C#Cc2cccc(CN3CCOCC3)c2)cc1)C(=O)NO [Compound 32] | 3.1 (≈ 7.12 µM)
62 | C=CCNCc1cccc(C#Cc2ccc(C(=O)N[C@H](C(=O)NO)C(C)C)cc2)c1 [Compound 26] | 6.3 (≈ 15.5 µM)
63 | O=C(N[C@@H](CO)C(=O)NO)c1ccc(C#Cc2ccc(CNCc3ccncc3)cc2)cc1 [Compound 90] | 0.8 (≈ 1.8 µM)
